Assay results as given in US20240350493A1 (Kadmon Corporation, LLC, priority 2022, published 2024).
Values after ≈ are worked out from the molar mass of the structure shown. “Also recorded” adds a separate entry of the source.

What was measured:
pregnant rats = experiment: embryo-fetal development studies in rats; type: in vivo, rat
Description: In the pilot study, maternal toxicity and embryo-fetal developmental effects were observed. Maternal toxicity (reduced body weight gain) occurred at 150 and 300 mg/kg/day doses. Increased post-implantation loss occurred at 50 and 300 mg/kg/day.

[1] = pharmacokinetics in healthy subjects (label); type: in vivo, human
[2] = test system: bacterial mutagenicity (Ames); experiment: in vitro bacterial mutagenicity (Ames) assay; type: cell-based
CYP1A2 = CYP1A2 (Homo sapiens, UniProt P05177); experiment: incubations with recombinant enzymes; type: in vitro ADME
P-gp [3] = target: T1, P-gp (Homo sapiens, UniProt P08183); experiment: transporter inhibition, in vitro; type: in vitro ADME; conditions: at clinically relevant concentrations
pregnant rabbits = experiment: embryo-fetal developmental study in rabbits; conditions: rabbit
P-gp [4] = target: T1, P-gp; experiment: transporter substrate, in vitro; type: in vitro ADME
healthy male subjects = experiment: phase I drug-drug interaction study, safety and tolerability (Example 1); type: in vivo, human
Excerpt: This was a single center, non-randomized, DDI study in 35 (Part 1) and 38 (Part 2) healthy males. The key inclusion criterion was males aged 18 to 55 years (inclusive). […] In Part 2, co-administration with omeprazole was studied. The study design is illustrated in FIG. 1.
At least a 2-to 8-day washout occurred between each period to account for a minimum of 5 half-lives of the active moieties dosed in the preceding period.
Safety and tolerability of belumosudil was the secondary endpoint of the study and was evaluated by AEs, vital signs, physical examinations, electrocardiograms (ECGs), and clinical laboratory tests. All subjects who received at least one dose of belumosudil or perpetrator compound were included in the safety population.

rats = experiment: general toxicology studies, rats; type: in vivo, rat
[5] = previously conducted solubility studies; type: physicochemical
Description: Rabeprazole, a strong PPI, suppresses the secretion of gastric acid by noncompetitive blockade of H+/K+-adenosine triphosphatase at the secretory surface of gastric parietal cells, thereby raising the intra-gastric pH above 3.0. The recommended starting dose of sodium rabeprazole for subjects with GI ulcers and GERD is 20 mg per day and for subjects with hypersecretory syndromes is 60 mg per day (Accord-UK Ltd. Summary of Product Characteristics: Rabeprazole 20 mg Gastro-resistant Tablets, available at www.medicines.org.uk/emc/medicine/27143/SPC/Rabeprazole+20 mg+Gastro-resistant+Tablets/. Updated 16 Apr. 2020. Accessed 12 Aug. 2021).

[6] = single oral dose of radiolabeled belumosudil

T1 sequence (P08183 whole entry): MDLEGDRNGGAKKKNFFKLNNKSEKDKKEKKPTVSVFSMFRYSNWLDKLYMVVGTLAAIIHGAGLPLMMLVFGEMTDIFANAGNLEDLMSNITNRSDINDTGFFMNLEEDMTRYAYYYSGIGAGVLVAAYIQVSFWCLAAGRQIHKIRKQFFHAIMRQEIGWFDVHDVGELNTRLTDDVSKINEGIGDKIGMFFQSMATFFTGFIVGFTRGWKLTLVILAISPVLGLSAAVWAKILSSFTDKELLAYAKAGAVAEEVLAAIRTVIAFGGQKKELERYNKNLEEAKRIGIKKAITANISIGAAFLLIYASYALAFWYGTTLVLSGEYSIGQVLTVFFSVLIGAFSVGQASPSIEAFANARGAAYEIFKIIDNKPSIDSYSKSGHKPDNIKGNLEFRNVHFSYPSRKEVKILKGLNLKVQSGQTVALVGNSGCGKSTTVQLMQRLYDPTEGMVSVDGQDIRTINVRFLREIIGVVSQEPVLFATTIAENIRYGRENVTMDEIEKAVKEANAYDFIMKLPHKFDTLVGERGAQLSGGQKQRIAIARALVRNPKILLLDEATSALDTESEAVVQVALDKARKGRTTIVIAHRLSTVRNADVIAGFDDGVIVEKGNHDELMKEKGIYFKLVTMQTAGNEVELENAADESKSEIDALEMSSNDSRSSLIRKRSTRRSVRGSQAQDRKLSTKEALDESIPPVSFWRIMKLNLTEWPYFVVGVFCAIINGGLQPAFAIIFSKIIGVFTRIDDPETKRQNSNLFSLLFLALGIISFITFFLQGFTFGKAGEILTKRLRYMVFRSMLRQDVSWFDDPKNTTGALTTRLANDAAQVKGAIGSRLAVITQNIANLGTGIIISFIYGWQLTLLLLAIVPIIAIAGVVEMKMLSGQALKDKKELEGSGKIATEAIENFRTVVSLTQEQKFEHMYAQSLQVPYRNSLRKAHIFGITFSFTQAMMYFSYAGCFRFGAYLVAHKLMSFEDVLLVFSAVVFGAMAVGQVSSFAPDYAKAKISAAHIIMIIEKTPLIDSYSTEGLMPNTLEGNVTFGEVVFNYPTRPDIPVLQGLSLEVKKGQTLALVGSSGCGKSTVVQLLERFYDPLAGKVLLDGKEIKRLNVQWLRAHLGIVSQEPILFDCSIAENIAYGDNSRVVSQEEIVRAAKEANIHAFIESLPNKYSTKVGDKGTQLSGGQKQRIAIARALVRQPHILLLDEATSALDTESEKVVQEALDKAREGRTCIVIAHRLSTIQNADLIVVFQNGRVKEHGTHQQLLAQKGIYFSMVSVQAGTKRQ
CYP1A2, sequence (P05177 whole entry): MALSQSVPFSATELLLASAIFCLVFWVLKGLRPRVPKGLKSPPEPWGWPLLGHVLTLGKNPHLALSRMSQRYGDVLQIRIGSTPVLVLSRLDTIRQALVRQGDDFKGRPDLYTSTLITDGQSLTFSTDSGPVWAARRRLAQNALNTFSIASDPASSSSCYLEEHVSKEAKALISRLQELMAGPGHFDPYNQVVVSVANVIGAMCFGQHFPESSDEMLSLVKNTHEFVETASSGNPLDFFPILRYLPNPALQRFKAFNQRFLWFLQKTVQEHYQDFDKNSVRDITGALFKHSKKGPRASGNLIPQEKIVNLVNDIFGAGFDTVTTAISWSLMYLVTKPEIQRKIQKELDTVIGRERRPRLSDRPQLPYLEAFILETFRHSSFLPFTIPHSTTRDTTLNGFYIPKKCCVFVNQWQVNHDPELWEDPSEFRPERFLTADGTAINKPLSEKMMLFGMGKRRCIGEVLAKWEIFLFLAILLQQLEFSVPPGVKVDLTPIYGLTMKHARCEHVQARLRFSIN

Compound: CC(C)NC(=O)COc1cccc(-c2nc(Nc3ccc4[nH]ncc4c3)c3ccccc3n2)c1 [Belumosudil, 2-{3-[4-(1H-indazol-5-ylamino)-2-quinazolinyl]phenoxy}-N-(propan-2-yl) acetamide]
- doses with fetal malformations (pregnant rats; pilot study, oral, period of organogenesis): ≥ 50 mg/kg/day
- maternal exposures (AUC) with adverse developmental outcomes, times human exposure at recommended dose (pregnant rats; rat): ≥ 3 times
- increase in AUC with high-fat and high-calorie meal vs fasted ([1]; single dose): 2 times
- increase in Cmax with high-fat and high-calorie meal vs fasted ([1]; single dose): 2.2 times
- radioactivity recovered in feces [1, 6]: 85%
- radioactivity recovered in urine [1, 6]: less than 5%
- recovered in feces as unchanged [1, 6]: 30%
- genotoxicity [2]: not genotoxic
- share of belumosudil metabolism (CYP1A2): < 5%
- P-gp inhibition (P-gp [3]): inhibits
- maternal exposures (AUC) with adverse developmental outcomes, times human exposure at recommended dose (pregnant rabbits): ≥ 0.07 times
- P-gp substrate (P-gp [4]): substrate
- treatment-emergent AEs (TEAEs) reported (healthy male subjects; Periods 1, 2, and 4): 33
- AEs considered possibly related to belumosudil (healthy male subjects; all mild: abdominal distension, hot flush, fatigue): Three
- serious AE (SAE) (healthy male subjects; ankle fracture after belumosudil+itraconazole, considered unrelated): One
- subjects reporting gastrointestinal disorders (healthy male subjects; belumosudil alone): 3 subjects
- subjects reporting gastrointestinal disorders (healthy male subjects; belumosudil+itraconazole): 5 subjects
- deaths or AEs leading to subject withdrawal (healthy male subjects; in vivo): no deaths or AEs leading to subject withdrawal
- safety profile (healthy male subjects; with and without perpetrator compounds): unremarkable; also recorded: safe, and no notable adverse events were reported
- dose with decreased follicular development in ovaries (rats): 275 mg/kg/day
- solubility ([5]; pH 2.7, aqueous buffer): > 100 µg/mL
- solubility ([5]; pH 6.5, aqueous buffer): ~4 µg/mL (≈ 8.84 µM)
- solubility ([5]; pH 7.4, aqueous buffer): ~3 µg/mL (≈ 6.63 µM)
